# From patent US12084442B2, “Naphthyridinone derivatives for the treatment of a disease or disorder” (Novartis AG, priority 2021, dated 2024)
# Columns and labels:
# GIRK1/4 = GIRK1/4 (Homo sapiens (Human), UniProt P48544+P48549); assay: GIRK1/4 activity assay (Quattro/IonWorks population patch clamp, inward potassium current); assay type: cell-based; conditions: GIRK1/4 HEK293 stable cells; current inhibition normalized to DMSO-only control
# Protocol: The GIRK1/4 activity of a compound according to the present invention was assessed by the following in vitro method.
# • a. External buffer: 10 mM NaCl, 50 mM Na Gluconate, 80 mM K Gluconate, 1.8 mM CaCl2, 1 mM MgCl2, 10 mM HEPES, 10 mM Glucose, pH 7.4; osmolarity 300-310 Osm/L. • b. Internal buffer: 30 mM KCl, 100 mM K Gluconate, 1 mM MgCl2, 10 mM HEPES, 1 mM EGTA, 10 mM NaCl, pH 7.2; osmolarity 284-292 Osm/L. Compounds: • c. Prepare seven-fold compound dilution series (10 mM to 20 uM) in 100% DMSO, in 384-well polypropylene plates. • d. Propafenone (Sigma Aldrich, catalog number P4670) was used as a positive control and DMSO for neutral control • e. Resuspend 1 μl of compounds in DMSO into 66.7 μl external buffer in 384-well polypropylene plate and load into Plate 1 section of Molecular Devices Quattro® Quattro Setup: • f. Load 384-well Population Patch Plate (Molecular Devices #9000-0902) into Quattro • g. Fill Quattro F-soak trough with 20% DMSO and 50% EtOH • h. Fill Quattro buffer trough with external buffer • i. Attach internal buffer flask to Quattro internal buffer tubing • j. Attach PBS (Phosphate Buffered Saline, minus Ca^++ and Mg^++, pH7.4) bottle to F-head & E-head wash on Quattro Antibiotic: • k. Resuspend 5.1-5.8 mg amphotericin B (Sigma Aldrich, catalog number A2411) in 175 μl DMSO • l. Add the resulting solution to 50 mL internal buffer and attach to antibiotic tubing port on Quattro Cells: • m. Use GIRK1/4 HEK293 stable cells (obtained from ChanTest, 14656 Neo Parkway, Cleveland, Ohio 44128) grown to ˜80% confluency in the following cell culture medium: DMEM containing 10% (v/v) Fetal Bovine Serum, Penicillin/Streptomycin (at “IX” concentration from a 100× stock), 0.5 mg/mL G418 and 0.1 mg/mL Zeocin. • n. Detach cells using Detachin (Genlantis, 11011 Torreyana, San Diego, CA 92121), washed with PBS (minus Ca^++ and Mg^++) and resuspend in external buffer (5 mL final volume at 2.0-2.1×10^6 cells/mL) • o. Load into cell trough of Quattro Assay Protocol:
# Quattro was controlled using IonWorks v2 software to perform the following steps: • p. Added 3.5 μl cells plus 3.5 μl external buffer to wells of Quattro Patch Plate® • q. Circulated amphotericin B and internal buffer onto cells • r. Applied the following voltage protocol: Pulse 1: 15 mV for 300 milliseconds (ms), followed by Pulse 2: −120 mV for 400 ms, then Pulse 3: −15 mV for 400 ms, and finally Pulse 4: −120 mV to 40 mV over 500 ms (this is a voltage ramp). • s. Measured magnitude of inward potassium current at time point between 1200-1220 ms from start of Pulse 1 (i.e., during the voltage ramp phase). • t. Added 3.5 μl of diluted compounds (or DMSO) to wells and repeated […] (final compound concentrations are 50 uM to 0.1 uM, and each concentration was tested in quadruplicate—i.e., in 4 separate wells). • u. The difference between current magnitude pre vs. post-compound gave a measure of GIRK1/4 inhibition. Data Analysis:
# IC50 values were calculated by plotting the percentage of current inhibition (normalized to the DMSO-only control) as a function of compound concentration using standard data analysis software.
# [1] = Pharmacokinetic properties in rats (IV and PO, whole blood LC-MS/MS); assay type: in vivo, Spargue Dawley/CD, male; conditions: for Rat AUC0-24 h 3 mg/kg: 3 mg/kg PO, suspension; for Rat AUC0-24 h 3 mg/kg / clearance: whole blood; for clearance: male, Sprague Dawley/CD, rat, IV dosing (0.3-1 mg/kg), CL = Dose/AUCinf; for Rat F: oral bioavailability, PO 3 mg/kg vs IV
# Protocol: The pharmacokinetic properties of the compounds in rats were assessed by the following in vivo studies as described below.
# At least four days before first drug administration, the rats (250-350 g) were anesthetized and, under aseptic conditions, catheters were surgically implanted into the left and right jugular veins (one for blood collection and the other one for intravenous injection). The catheters were exteriorized and fixed at the neck. For analgesic treatment, animals received analgesics before surgery and subsequently twice at appropriate times after surgery. The freely-moving animals equipped with catheters are kept individually in Macrolon cages, with free access to food and water throughout the experiment. After a recovery phase of at least 4 days, a single test compound was administered intravenously or orally, based upon the individual body weights.
# The test articles were administered as solution in NMP:PEG 200 (10:90 v/v). Test articles where no solution can be obtained were rejected and not used in discrete or cassette dosing.
# The test article were administered as suspension in MC:Tween 80:water (0.5:0.1:99.4 w/v/v).
# The test article was administered as solution and as a bolus injection or as short I.V. infusion (30 seconds) via the left jugular vein catheter to conscious rats. The dose volume was 0.5 mL/kg body weight.
# The test article was administered as a solution or suspension into the esophagus via a gavage tube to conscious rats. The dose volume was 5 mL/kg body weight. The exact start time of dosing and exact dose volume was noted.
# Blood samples (20 μL) were collected from the right jugular vein catheter of cannulated animals (if JV catheter becomes non patent during the PK experiment (i.e., after dosing), blood can exceptionally be collected by tail vein puncture but it must be clearly specified into the in-life observations and data study rep) in tubes containing 10% of blood of 2% W/V K2 EDTA (2.0 mg/mL) at the different time intervals. Blood was collected following IV dosing at 0.083, 0.25, 0.5, 1, 2, 4, 7 and 24 h post dose. Blood was collected following PO dosing: 0.25, 0.5, 1, 2, 4, 7 and 24 h post dose.
# The concentrations of compounds in whole blood were quantified using a liquid chromatography/mass spectrometry (LC-MS/MS) assay. 20 μL of each blood sample were precipitated with 100 μL of acetonitrile containing generic internal standards (carbamazepine/telmisartan/verapamil; c=50 ng/mL). The samples were vortexed thoroughly then centrifuged (5 min, 4° C.). The supernatant (80 μL) was transferred to a clean 96-well plate and mixed with 80 μL of water.
# The samples were injected (1 to 20 μL) onto suitable analytical columns, using various isocratic methods and flow rates. Mobile phases typically consisting of 0.1% formic acid in water (solvent A) and 0.1% formic acid in acetonitrile (solvent B) with additional modifiers, if needed. Compounds and the internal standards were eluted at various retention times. The HPLC systems were interfaced to mass spectrometers. MS/MS analyses were carried out using electrospray ionization (ESI), typically in the positive ionization mode. Compounds and the internal standards were monitored using multiple reaction monitoring (MRM).
# The standard curves employed for sample quantitation ranged over several log units. The lower limit of quantitation (LLOQ) in blood was determined and used as cutoff for the analytical sensitivity. Known amounts of the compounds were spiked into blood to create quality control samples with six known concentrations in singlets. The accuracy of the in vivo blood sample concentration determination was considered acceptable when the intra-assay accuracies obtained for the quality control samples were within 70% to 130% of the expected concentrations. Subsequently, from the time concentration data, pharmacokinetic parameters were calculated by non-compartmental regression analyses using an in house fitting program. […]
# [2] = Pharmacokinetic study in male Beagle dogs; assay type: in vivo
# Chain of GIRK1/4 (P48549 whole entry): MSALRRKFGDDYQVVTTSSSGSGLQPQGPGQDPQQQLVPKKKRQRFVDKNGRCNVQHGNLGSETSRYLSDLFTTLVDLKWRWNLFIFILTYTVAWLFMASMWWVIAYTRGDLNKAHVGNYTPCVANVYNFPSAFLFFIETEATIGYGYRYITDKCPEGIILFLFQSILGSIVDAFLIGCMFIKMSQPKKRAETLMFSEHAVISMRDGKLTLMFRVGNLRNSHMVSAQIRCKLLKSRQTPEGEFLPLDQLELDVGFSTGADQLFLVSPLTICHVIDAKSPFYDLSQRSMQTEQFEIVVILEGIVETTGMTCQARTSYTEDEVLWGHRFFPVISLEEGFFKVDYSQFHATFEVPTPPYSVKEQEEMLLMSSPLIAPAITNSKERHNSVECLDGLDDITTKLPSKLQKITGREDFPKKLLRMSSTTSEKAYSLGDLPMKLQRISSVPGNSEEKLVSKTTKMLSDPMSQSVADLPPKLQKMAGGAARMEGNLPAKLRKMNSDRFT
# Chain of GIRK1/4 (P48544 whole entry): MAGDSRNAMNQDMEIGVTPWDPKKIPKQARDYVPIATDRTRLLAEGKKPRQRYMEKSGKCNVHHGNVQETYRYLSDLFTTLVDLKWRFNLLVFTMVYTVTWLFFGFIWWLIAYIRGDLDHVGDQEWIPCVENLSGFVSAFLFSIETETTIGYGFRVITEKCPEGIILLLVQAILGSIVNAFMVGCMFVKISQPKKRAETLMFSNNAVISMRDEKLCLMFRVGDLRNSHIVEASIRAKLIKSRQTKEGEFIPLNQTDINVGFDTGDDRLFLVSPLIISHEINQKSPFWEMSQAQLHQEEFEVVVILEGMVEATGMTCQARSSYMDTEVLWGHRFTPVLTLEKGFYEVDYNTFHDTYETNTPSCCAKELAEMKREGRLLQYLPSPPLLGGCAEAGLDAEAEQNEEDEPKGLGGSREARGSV
smiles,measurement,setting,value
"CNC(=O)CCOc1ncc(Cl)c2c1c(=O)cc(C)n2-c1c(Cl)cc(OCCO)cc1Cl [Example 1, 3-((8-Chloro-1-(2,6-dichloro-4-(2-hydroxyethoxy)phenyl)-2-methyl-4-oxo-1,4-dihydro-1,6-naphthyridin-5-yl)oxy)-N-methylpropanamide]",IC50,GIRK1/4,90 nM
same,Rat AUC0-24 h 3 mg/kg,[1],3270 nMh
same,clearance,[1],20.2 mL/min/kg
same,Rat F,[1],71%
same,AUC0-24 h,[2]; 0.3 mg/kg IV solution and 1 mg/kg PO suspension,5270 nMh
same,clearance,"[2]; dog, in vivo, 0.3 mg/kg IV as a solution, read-out: Clearance (Cl)",5.5 mL/min/kg
same,bioavailability,"[2]; dog, in vivo, 1 mg/kg PO as a suspension vs 0.3 mg/kg IV, read-out: Oral bioavailability (F)",87%
"CNC(=O)COc1ncc(Cl)c2c1c(=O)cc(C)n2-c1c(Cl)cc(OCCO)cc1Cl [Example 5, 2-((8-Chloro-1-(2,6-dichloro-4-(2-hydroxyethoxy)phenyl)-2-methyl-4-oxo-1,4-dihydro-1,6-naphthyridin-5-yl)oxy)-N-methylacetamide]",IC50,GIRK1/4,60 nM
same,Rat AUC0-24 h 3 mg/kg,[1],2336 nMh
same,clearance,[1],14.6 mL/min/kg
same,Rat F,[1],33%
"CNC(=O)CCOc1ncc(Cl)c2c1c(=O)cc(C)n2-c1c(Cl)cc(OC[C@@H](C)O)cc1Cl [Example 6, (R)-3-((8-Chloro-1-(2,6-dichloro-4-(2-hydroxypropoxy)phenyl)-2-methyl-4-oxo-1,4-dihydro-1,6-naphthyridin-5-yl)oxy)-N-methylpropanamide]",IC50,GIRK1/4,130 nM
same,Rat AUC0-24 h 3 mg/kg,[1],3570 nMh
same,clearance,[1],21.6 mL/min/kg
same,Rat F,[1],82%
"CNC(=O)[C@H](C)COc1ncc(Cl)c2c1c(=O)cc(C)n2-c1c(Cl)cc(OCCO)cc1Cl [Example 7, (R)-3-((8-Chloro-1-(2,6-dichloro-4-(2-hydroxyethoxy)phenyl)-2-methyl-4-oxo-1,4-dihydro-1,6-naphthyridin-5-yl)oxy)-N,2-dimethylpropanamide]",IC50,GIRK1/4,70 nM
same,Rat AUC0-24 h 3 mg/kg,[1],4410 nMh
same,clearance,[1],13.6 mL/min/kg
same,Rat F,[1],61%
"CC(=O)NCCOc1ncc(Cl)c2c1c(=O)cc(C)n2-c1c(Cl)cc(OCCO)cc1Cl [Example 9, N-(2-((8-chloro-1-(2,6-dichloro-4-(2-hydroxyethoxy)phenyl)-2-methyl-4-oxo-1,4-dihydro-1,6-naphthyridin-5-yl)oxy)ethyl)acetamide]",IC50,GIRK1/4,80 nM
same,Rat AUC0-24 h 3 mg/kg,[1],1460 nMh
same,clearance,[1],24.2 mL/min/kg
same,Rat F,[1],40%
"CNC(=O)[C@@H](O)COc1ncc(Cl)c2c1c(=O)cc(C)n2-c1c(Cl)cc(OCCO)cc1Cl [Example 13, (S)-3-((8-Chloro-1-(2,6-dichloro-4-(2-hydroxyethoxy)phenyl)-2-methyl-4-oxo-1,4-dihydro-1,6-naphthyridin-5-yl)oxy)-2-hydroxy-N-methylpropanamide]",IC50,GIRK1/4,60 nM
same,Rat AUC0-24 h 3 mg/kg,[1],2410 nMh
same,clearance,[1],18.4 mL/min/kg
same,Rat F,[1],55%
"CNC(=O)CCOc1ncc(Cl)c2c1c(=O)cc(C)n2-c1c(Cl)cc(OCC2(O)COC2)cc1Cl [Example 15, 3-((8-Chloro-1-(2,6-dichloro-4-((3-hydroxyoxetan-3-yl)methoxy)phenyl)-2-methyl-4-oxo-1,4-dihydro-1,6-naphthyridin-5-yl)oxy)-N-methylpropanamide]",IC50,GIRK1/4,320 nM
same,Rat AUC0-24 h 3 mg/kg,[1],1290 nMh
same,clearance,[1],32.8 mL/min/kg
same,Rat F,[1],46%
"CNC(=O)COc1cc(Cl)c(-n2c(C)cc(=O)c3c(OCC(N)=O)ncc(Cl)c32)c(Cl)c1 [Example 17, 2-(4-(5-(2-Amino-2-oxoethoxy)-8-chloro-2-methyl-4-oxo-1,6-naphthyridin-1(4H)-yl)-3,5-dichlorophenoxy)-N-methylacetamide]",IC50,GIRK1/4,250 nM
same,Rat AUC0-24 h 3 mg/kg,[1],2310 nMh
same,clearance,[1],31.7 mL/min/kg
same,Rat F,[1],73%
"CC(=O)NCCCc1ncc(Cl)c2c1c(=O)cc(C)n2-c1c(Cl)cc(OCCO)cc1Cl [Example 19, N-(3-(8-Chloro-1-(2,6-dichloro-4-(2-hydroxyethoxy)phenyl)-2-methyl-4-oxo-1,4-dihydro-1,6-naphthyridin-5-yl)propyl)acetamide]",IC50,GIRK1/4,50 nM
same,Rat AUC0-24 h 3 mg/kg,[1],1290 nMh
same,clearance,[1],27.9 mL/min/kg
same,Rat F,[1],46%
"Cc1cc(=O)c2c(CCS(C)(=O)=O)ncc(Cl)c2n1-c1c(Cl)cc(OCCO)cc1Cl [Example 20, 8-Chloro-1-(2,6-dichloro-4-(2-hydroxyethoxy)phenyl)-2-methyl-5-(2-(methylsulfonyl)ethyl)-1,6-naphthyridin-4(1H)-one]",IC50,GIRK1/4,50 nM
same,Rat AUC0-24 h 3 mg/kg,[1],2407 nMh
same,clearance,[1],19.8 mL/min/kg
same,Rat F,[1],44%
"Cc1cc(=O)c2c(CCCS(C)(=O)=O)ncc(Cl)c2n1-c1c(Cl)cc(OCC(C)(C)O)cc1Cl [Example 22, 8-Chloro-1-(2,6-dichloro-4-(2-hydroxy-2-methylpropoxy)phenyl)-2-methyl-5-(3-(methylsulfonyl)propyl)-1,6-naphthyridin-4(1H)-one]",IC50,GIRK1/4,190 nM
same,Rat AUC0-24 h 3 mg/kg,[1],1360 nMh
same,clearance,[1],23.6 mL/min/kg
same,Rat F,[1],37%
